{
  "source": "the NIST ThermoML archive (doi:10.1016/j.jct.2007.05.010)",
  "key": {"[1]": {"assay": "mn = molality of the nth substance listed, in mol/kg", "conditions": "298.15 K, 101 kPa, Liquid; for speed of sound: Sing-around technique in a fixed-path interferometer"}, "[2]": {"conditions": "298.15 K, 101 kPa, Liquid; for speed of sound: Sing-around technique in a fixed-path interferometer"}},
  "note": "Numbers after ± are expanded uncertainties.",
  "data": [
    {"smiles": "CC1COC(=O)O1", "note": "(stereo not given) [4-methyl-1,3-dioxolan-2-one] + O", "values": [
      {"measurement": "speed of sound", "setting": "[1]; m2 = 0", "result": "1443.4 ± 1.6", "unit": "m/s"},
      {"measurement": "speed of sound", "setting": "[1]; m2 = 0.2538", "result": "1444.9 ± 1.6", "unit": "m/s"},
      {"measurement": "speed of sound", "setting": "[1]; m2 = 0.2969", "result": "1445.2 ± 1.6", "unit": "m/s"},
      {"measurement": "speed of sound", "setting": "[1]; m2 = 0.3438", "result": "1445.4 ± 1.6", "unit": "m/s"},
      {"measurement": "speed of sound", "setting": "[1]; m2 = 0.3895", "result": "1445.6 ± 1.6", "unit": "m/s"},
      {"measurement": "speed of sound", "setting": "[1]; m2 = 0.4879", "result": "1446 ± 1.6", "unit": "m/s"},
      {"measurement": "speed of sound", "setting": "[1]; m2 = 0.5765", "result": "1446.6 ± 1.6", "unit": "m/s"},
      {"measurement": "speed of sound", "setting": "[1]; m2 = 0.6743", "result": "1447.2 ± 1.6", "unit": "m/s"},
      {"measurement": "speed of sound", "setting": "[1]; m2 = 0.7678", "result": "1447.6 ± 1.6", "unit": "m/s"},
      {"measurement": "mass density", "setting": "[1]; m2 = 0", "result": "1198.64 ± 0.94", "unit": "kg/m3"},
      {"measurement": "mass density", "setting": "[1]; m2 = 0.2538", "result": "1197.46 ± 0.93", "unit": "kg/m3"},
      {"measurement": "mass density", "setting": "[1]; m2 = 0.2969", "result": "1197.24 ± 0.93", "unit": "kg/m3"},
      {"measurement": "mass density", "setting": "[1]; m2 = 0.3438", "result": "1196.97 ± 0.93", "unit": "kg/m3"},
      {"measurement": "mass density", "setting": "[1]; m2 = 0.3895", "result": "1196.74 ± 0.93", "unit": "kg/m3"},
      {"measurement": "mass density", "setting": "[1]; m2 = 0.4879", "result": "1196.22 ± 0.93", "unit": "kg/m3"},
      {"measurement": "mass density", "setting": "[1]; m2 = 0.5765", "result": "1195.77 ± 0.93", "unit": "kg/m3"},
      {"measurement": "mass density", "setting": "[1]; m2 = 0.6743", "result": "1195.27 ± 0.93", "unit": "kg/m3"},
      {"measurement": "mass density", "setting": "[1]; m2 = 0.7678", "result": "1194.8 ± 0.92", "unit": "kg/m3"}
    ]},
    {"smiles": "CC(O)CO", "note": "(stereo not given) [1,2-propanediol]", "values": [
      {"measurement": "mass density", "setting": "[2]", "result": "1032.87 ± 0.23", "unit": "kg/m3"},
      {"measurement": "speed of sound", "setting": "[2]", "result": "1510.6 ± 1.4", "unit": "m/s"}
    ]},
    {"smiles": "CC1COC(=O)O1", "note": "(stereo not given) [4-methyl-1,3-dioxolan-2-one]", "values": [
      {"measurement": "mass density", "setting": "[2]", "result": "1198.64 ± 0.94", "unit": "kg/m3"},
      {"measurement": "speed of sound", "setting": "[2]", "result": "1443.4 ± 1.6", "unit": "m/s"}
    ]},
    {"smiles": "OCCO", "note": "[1,2-ethanediol] + O", "values": [
      {"measurement": "speed of sound", "setting": "[1]; m2 = 0", "result": "1656.1 ± 1.7", "unit": "m/s"},
      {"measurement": "speed of sound", "setting": "[1]; m2 = 0.1028", "result": "1656.9 ± 1.7", "unit": "m/s"},
      {"measurement": "speed of sound", "setting": "[1]; m2 = 0.2175", "result": "1657.7 ± 1.7", "unit": "m/s"},
      {"measurement": "speed of sound", "setting": "[1]; m2 = 0.3155", "result": "1658.6 ± 1.7", "unit": "m/s"},
      {"measurement": "speed of sound", "setting": "[1]; m2 = 0.3759", "result": "1658.7 ± 1.7", "unit": "m/s"},
      {"measurement": "speed of sound", "setting": "[1]; m2 = 0.7031", "result": "1660.5 ± 1.7", "unit": "m/s"},
      {"measurement": "speed of sound", "setting": "[1]; m2 = 0.808", "result": "1661.4 ± 1.7", "unit": "m/s"},
      {"measurement": "speed of sound", "setting": "[1]; m2 = 0.9282", "result": "1661.8 ± 1.7", "unit": "m/s"},
      {"measurement": "speed of sound", "setting": "[1]; m2 = 1.035", "result": "1662.3 ± 1.7", "unit": "m/s"},
      {"measurement": "speed of sound", "setting": "[1]; m2 = 1.132", "result": "1662.7 ± 1.7", "unit": "m/s"},
      {"measurement": "mass density", "setting": "[1]; m2 = 0", "result": "1109.41 ± 0.69", "unit": "kg/m3"},
      {"measurement": "mass density", "setting": "[1]; m2 = 0.1028", "result": "1109.35 ± 0.69", "unit": "kg/m3"},
      {"measurement": "mass density", "setting": "[1]; m2 = 0.2175", "result": "1109.25 ± 0.69", "unit": "kg/m3"},
      {"measurement": "mass density", "setting": "[1]; m2 = 0.3155", "result": "1109.22 ± 0.69", "unit": "kg/m3"},
      {"measurement": "mass density", "setting": "[1]; m2 = 0.3759", "result": "1109.06 ± 0.69", "unit": "kg/m3"},
      {"measurement": "mass density", "setting": "[1]; m2 = 0.7031", "result": "1108.82 ± 0.68", "unit": "kg/m3"},
      {"measurement": "mass density", "setting": "[1]; m2 = 0.808", "result": "1108.62 ± 0.68", "unit": "kg/m3"},
      {"measurement": "mass density", "setting": "[1]; m2 = 0.9282", "result": "1108.2 ± 0.68", "unit": "kg/m3"},
      {"measurement": "mass density", "setting": "[1]; m2 = 1.035", "result": "1108.14 ± 0.68", "unit": "kg/m3"},
      {"measurement": "mass density", "setting": "[1]; m2 = 1.132", "result": "1108.1 ± 0.68", "unit": "kg/m3"}
    ]},
    {"smiles": "OCCO", "note": "[1,2-ethanediol]", "values": [
      {"measurement": "mass density", "setting": "[2]", "result": "1109.41 ± 0.69", "unit": "kg/m3"},
      {"measurement": "speed of sound", "setting": "[2]", "result": "1656.1 ± 1.7", "unit": "m/s"}
    ]},
    {"smiles": "CC(O)CO", "note": "(stereo not given) [1,2-propanediol] + O", "values": [
      {"measurement": "speed of sound", "setting": "[1]; m2 = 0", "result": "1510.6 ± 1.4", "unit": "m/s"},
      {"measurement": "speed of sound", "setting": "[1]; m2 = 0.2187", "result": "1512.9 ± 1.4", "unit": "m/s"},
      {"measurement": "speed of sound", "setting": "[1]; m2 = 0.5592", "result": "1516.4 ± 1.4", "unit": "m/s"},
      {"measurement": "speed of sound", "setting": "[1]; m2 = 0.6141", "result": "1516.5 ± 1.4", "unit": "m/s"},
      {"measurement": "speed of sound", "setting": "[1]; m2 = 0.7341", "result": "1517.5 ± 1.4", "unit": "m/s"},
      {"measurement": "speed of sound", "setting": "[1]; m2 = 0.8421", "result": "1519.4 ± 1.4", "unit": "m/s"},
      {"measurement": "speed of sound", "setting": "[1]; m2 = 0.9215", "result": "1519.9 ± 1.4", "unit": "m/s"},
      {"measurement": "speed of sound", "setting": "[1]; m2 = 1.023", "result": "1521.5 ± 1.4", "unit": "m/s"},
      {"measurement": "mass density", "setting": "[1]; m2 = 0", "result": "1032.87 ± 0.23", "unit": "kg/m3"},
      {"measurement": "mass density", "setting": "[1]; m2 = 0.2187", "result": "1033.12 ± 0.23", "unit": "kg/m3"},
      {"measurement": "mass density", "setting": "[1]; m2 = 0.5592", "result": "1033.53 ± 0.24", "unit": "kg/m3"},
      {"measurement": "mass density", "setting": "[1]; m2 = 0.6141", "result": "1033.58 ± 0.24", "unit": "kg/m3"},
      {"measurement": "mass density", "setting": "[1]; m2 = 0.7341", "result": "1033.67 ± 0.24", "unit": "kg/m3"},
      {"measurement": "mass density", "setting": "[1]; m2 = 0.8421", "result": "1033.73 ± 0.24", "unit": "kg/m3"},
      {"measurement": "mass density", "setting": "[1]; m2 = 0.9215", "result": "1033.86 ± 0.24", "unit": "kg/m3"},
      {"measurement": "mass density", "setting": "[1]; m2 = 1.023", "result": "1033.94 ± 0.24", "unit": "kg/m3"}
    ]}
  ]
}
